The test system of series [1] is AML cell lines (HL-60, HEL, THP-1, K562). As to the kind of experiment: alamarBlue cell viability assay, AML cell line panel (serotonin receptor inhibitors). The following applies: 24 h; for effects on AML cell viability: increasing concentrations. Format: cell-based, human. The procedure:
The alamarBlue assay was performed to assess cell viability in presence of chemical inhibitors. A total of 50,000 cells per well were seeded in a 96-wells plate in a volume of 100 μL of complete medium together with 10 μL of 10× concentrated inhibitor solution and then incubated for either 24 or 72 h. Each experimental condition was performed in technical quadruplicates, using cells treated with equal amounts of DMSO vehicle as control and medium alone as background. After incubation, alamarBlue was added to each well at a final concentration of 0.15 mg/mL. The fluorescence of the samples was measured 24 h later using a Spark 10 M Multimode Plate Reader (Tecan, Switzerland) with excitation and emission wavelengths of 535 nm and 590 nm, respectively. For dose–response curve fitting, fluorescence values were normalized according to the following formula:Viability (%) = [(sample mean fluorescence)/(DMSO control mean fluorescence)] ∗ 100 […]
Supplementary figure S3: Effects of serotonin receptor inhibitors on AML cell lines viability.
AML cells were treated with increasing concentration of the indicated inhibitor for 24 hours followed by alamarBlue viability assay for additional 24 hours. Experiments were run in quadruplicates. Data are the mean ± SEM of 4 or more experiments interpolated as [inhibitor] vs. % viability. […]
In general terms: Resazurin is reduced to fluorescent resorufin, in cell work by metabolically active cells.

In the next series the test system is HL-60 cells. More on the design: method as in PMID 37509516. The following applies: cited from earlier work; for effect on viability: HL-60; for IC50: HL-60, 24 h, read-out: IC50 (cytotoxicity).
The subject of the next series is HEL cells. More on the design: method as in PMID 37509516. The settings on record: cited from earlier work; for IC50: 24 h, read-out: IC50 (cytotoxicity).
Series [2] deals with serotonin 5-HT2A receptor. The settings on record: cited from earlier work.

Data on seven compounds can be found in paper PMC12609579, “Acute Myeloid Leukemia: A Key Role of DGKα and DGKζ in Cell Viability” (Cells, 2025).

Structures are written as SMILES.

On to `CCN(CC)CCNC(=O)c1cc(Cl)c(N)cc1OC` [metoclopramide], for which, in series [1] (100 μM), the “highest reduction in viability” value was 11%. Moreover, the “effects on AML cell viability” value in series [1] was “negligible effects”.

As for `O=C1/C(=C/C=C/c2ccco2)SC(=S)N1NS(=O)(=O)c1ccccc1` [CU-3], the effect on viability result with HL-60 cells and with HEL cells was “did not significantly affect viability” throughout.

`Cc1nc2sccn2c(=O)c1CCN1CCC(=C(c2ccccc2)c2ccc(F)cc2)CC1` [R59022]: the IC50 in the series with HL-60 cells is 32 µM; in the series on HEL cells it was 49 µM.

As to `Cc1ccc2c(C(=O)CN3CCN(C(=O)c4ccco4)CC3)c(C)[nH]c2c1` [AMB639752], the effect on viability entry in the series with HL-60 cells and in the series on HEL cells was “did not significantly affect viability” in each case.

In the case of `Cc1nc2n(c(=O)c1CCN1CCC(c3noc4cc(F)ccc34)CC1)CCCC2` [risperidone], the “effects on AML cell viability” value in series [1] is “negligible effects”.

Regarding `O=c1c2ccccc2[nH]c(=S)n1CCN1CCC(=C(c2ccc(F)cc2)c2ccc(F)cc2)CC1` [R59949], the half-maximal inhibitory concentration (IC50) in the series with HL-60 cells was 72 µM; in the series with HEL cells, 80 µM.

With `O=C(c1ccc(F)cc1)C1CCN(CCn2c(=S)[nH]c3ccccc3c2=O)CC1` [altanserin], the “effects on AML cell viability” value in series [1] is listed as “negligible effects”. Further, the inhibitory constant (Ki) in series [2] was 0.00013 µM.

As a reminder, the IC50 is the concentration at which inhibition is half-maximal. Usually Ki stands for a measure of affinity in units of concentration, obtained from inhibition or displacement.
